Values quoted from earlier work as cited in patent US20250059333A1, “BILAYER BIONIC DRUG-LOADED HYDROGEL, AND PREPARATION AND APPLICATION THEREOF” (Chengdu Hengkui Biotechnology Co., Ltd., priority 2022, published 2025).

Details: relative to glutaraldehyde, a commonly used chemical cross-linking agent

**Q.** Which “toxicity lower than that of glutaraldehyde” value does the source give for `COC(=O)C1=CO[C@@H](O)[C@@H]2C(CO)=CC[C@H]12` [genipin] here?
**A.** 10000 times
